Laboratory results published in patent US20250186439A1, “PYK2 INHIBITION MODULATES IMMUNE CELL FUNCTION” (The Children's Medical Center Corporation, priority 2022, published 2025).
Entries after “also recorded” stand apart in the source; their conditions may differ.

Columns and labels:
MG6 cells [1] = assay: MG6 microglia viability, morphology and proliferation (Cell Counting Kit-8); type: cell-based, mouse; details: for MG6 cell proliferation: 24 h after CSF-1, listed as Pyk2 inhibitor
Protocol: (§1) FIGS. 4A-4E. Induction of multinucleated cells by a Pyk2 inhibitor. FIG. 4A: Microscopic images depicting the effect of a Pyk2 inhibitor on the morphology of MG6 cells. MG6 cell line is established with neonatal C57BL/6 mouse microglia that are collected from whole brain and transformed with c-myc oncogene. MG6 cells were stimulated with 100 ng/mL CSF-1 for 48 hours and then cultured for 24 hours with various concentrations of Pyk2 inhibitor: 0 nM, 100 nM, 500 nM and 1000 nM. FIG. 4B: Quantification of the effect of a Pyk2 inhibitor on the proliferation of MG6 cells. MG6 cells were stimulated with CSF-1 and cultured with various concentrations of Pyk2 inhibitor as in FIG. 4A. The baseline proliferation rate is defined as 100 ng/mL CSF-1 treatment for 48 hours. Proliferation of MG6 cells with various concertation of Pyk2 inhibitor treatment is measured using a Cell Counter Kit for 4 hours of incubation. No difference in MG6 cell proliferation is observed at the Pyk2 inhibitor concentration of 100 nM. […] FIG. 4C: Microscopic images depicting multinucleated MG6 cells with 24 hours of 1000 nM Pyk2 inhibitor treatment following 48 hours of 100 ng/mL CSF-1 treatment. […] Multinucleated cells with two or more nuclei are observed as marked with circles in the bottom image. FIG. 4D: Quantification of the proportion of multinucleated cells after 0 nM, 500 nM, and 1000 nM Pyk2 inhibitor treatment. MG6 cells were treated with Pyk2 inhibitor for 24 hours after 48 hours of 100 ng/mL CSF-1 treatment. […] FIG. 4E: Immunohistochemical staining depicting multinucleation of Pyk2 inhibitor treated microglia. […]
(§2) To further assess the function of Pyk2 during neurodegenerative disorders, such as AD, the effect of Pyk2 inhibition was assessed in a microglial cell line. […]
Upon treatment with up to 1000 nM Pyk2 inhibitor, MG6 viability and morphology appeared to be unaffected (FIG. 4A). To assess if Pyk2 inhibition negatively affected proliferation of MG6 cells, treated and untreated cells were quantified using a Cell Counting Kit-8 (Dojindo, Japan CK104) after 4 hours of incubation.

MG6 cells [2] = assay: Multinucleation of MG6 microglia (DAPI, Iba1 staining); type: cell-based, mouse
Protocol: as §1, with “microglia. MG6 cells were stained with anti-Tubulin and anti-Iba1, while nuclei were stained with DAPI. Cells were observed via confocal microscopy (×600). MG6 cells were treated without Pyk2 inhibitor (left) or with 1000 nM Pyk2 inhibitor (right) after 48 hours of 100 ng/mL CSF-1 treatment. Scale bar is 20 μm.” for “microglia.”
as §2

Compound: CN(c1ccccc1CNc1nc(Nc2ccc3c(c2)CC(=O)N3)ncc1C(F)(F)F)S(C)(=O)=O [PF-431396]
- MG6 cell proliferation (MG6 cells [1]; 100 nM (up to 100 nM)): No significant change; also recorded: No difference
- MG6 cell proliferation (MG6 cells [1]; 500 nM or 1000 nM): slight reduction; also recorded: slightly decreased
- MG6 viability and morphology (MG6 cells [1]; up to 1000 nM, 24 h after 48 h 100 ng/mL CSF-1): unaffected
- multinucleation of MG6 cells (MG6 cells [2]; 500 nM, 24 h after 48 h CSF-1): insufficient to induce multinucleation
- level of Iba1 in cytoplasm of multinucleated MG6 cells (MG6 cells [2]; 1000 nM): increased level
- multinucleation of MG6 cells / proportion of multinucleated cells (MG6 cells [2]; 1000 nM, 24 h after 48 h CSF-1, listed as Pyk2 inhibitor): multinucleation of MG6 cells was observed; also recorded: significantly increased
